Test results as given in paper PMC6008465 (British Journal of Cancer, 2018).

What was measured:
phosphor-ERK levels = settings: quoted in discussion, no reference given; read-out: IC50 for inhibition of phosphor-ERK levels; cited from earlier work
[1] = system: patients with advanced BRAF-mutated or wild-type (WT) melanoma; assay: Phase 1 Part B (expansion): safety, MTD confirmation; type: in vivo, human
Protocol: In Part B, an adaptive study design was planned to define an optimal dosing schedule. Two schedules were evaluated: Schedule I (once-weekly dosing at the MTD, 320 mg/m^2, on Days 1, 8, and 15 of a 28-day cycle) and Schedule II (twice-weekly dosing, on Days 1, 4, 8, 11, 15, and 18 of a 28-day cycle, starting at 160 mg/m^2, based on the Schedule I MTD). One dose escalation (from 160 mg/m^2 to 320 mg/m^2) was allowed in Schedule II for MTD determination. […] Toxicity was managed as before. Up to 30 patients with BRAF-mutated melanoma and up to 29 patients with BRAF-WT melanoma were to be enrolled in Schedule I. Up to 30 patients were to be enrolled into Schedule II once the MTD was confirmed. Based on the efficacy observed in Part A, Schedule II was initiated only in patients with BRAF-mutated melanoma. Patients could continue to receive E6201 as long as there was evidence of clinical benefit (extension phase).
Safety was assessed by monitoring AEs, serious AEs (SAEs), laboratory parameters, vital signs, 12-lead electrocardiograms (ECGs), Eastern Cooperative Oncology Group performance status, and symptom-directed physical and neurologic examination findings. AEs were graded by investigators based on the National Cancer Institute Common Terminology Criteria for Adverse Events, version 3.[16]

[2] = preclinical; cited from earlier work
[3] = Part B, BRAF-WT 320 mg/m^2 once weekly (n=7)
[4] = Part B, BRAF-mutated 160 mg/m^2 twice weekly (n=3)
[5] = Part B, BRAF-mutated 320 mg/m^2 once weekly (n=20)
[6] = Part B, BRAF-mutated 320 mg/m^2 once-weekly group

CCNc1cc(O)c2c(c1)/C=C/C[C@H](O)[C@H](O)C(=O)/C=C\[C@@H](C)[C@H](C)OC2=O [E6201, (3S,4R,5Z,8S,9S,11E)-14-(ethylamino)-8,9,16-trihydroxy-3,4-dimethyl-3,4,9,19-tetrahydro-1H-2-benzoxacyclotetradecine-1,7 (8H)-dione]
IC50 (phosphor-ERK levels): 2.08 nM | Patients who discontinued treatment due to SAEs ([1]; Part B): 4 patients | Fatigue TEAE, patients ([1]; Part B overall, 11 patients): 36.7% | Grade 3/4 abdominal pain, patients ([1]; Part B, 2 patients): 6.7% | Grade 3/4 dyspnea, patients ([1]; Part B, 2 patients): 6.7% | Treatment-emergent SAEs other than death, patients ([1]; Part B, 14 patients): 46.7% | Grade 3/4 TEAEs, patients ([1]; Part B, 15 patients): 50.0% | Patients with ≥1 TEAE assessed as treatment-related ([1]; Part B, 19 patients): 63.3% | QT prolongation reported as an AE (grade 3, possibly related, not DLT), patients ([1]; Part B, 60-min infusion, 1 patient): 3.3% | Anemia TEAE incidence, All grades [1, 3]: 3 (42.9) n (%) | Anemia TEAE incidence, G≥3 [1, 3]: 1 (14.3) n (%) | Constipation TEAE incidence, All grades [1, 3]: 2 (28.6) n (%) | Constipation TEAE incidence, G≥3 [1, 3]: 0 n (%) | Cough TEAE incidence, All grades [1, 3]: 1 (14.3) n (%) | Cough TEAE incidence, G≥3 [1, 3]: 0 n (%) | Decreased appetite TEAE incidence, All grades [1, 3]: 2 (28.6) n (%) | Decreased appetite TEAE incidence, G≥3 [1, 3]: 0 n (%) | Fatigue TEAE incidence, All grades [1, 3]: 4 (57.1) n (%) | Fatigue TEAE incidence, G≥3 [1, 3]: 0 n (%) | Muscular weakness TEAE incidence, All grades [1, 3]: 2 (28.6) n (%) | Muscular weakness TEAE incidence, G≥3 [1, 3]: 0 n (%) | Nausea TEAE incidence, All grades [1, 3]: 2 (28.6) n (%) | Nausea TEAE incidence, G≥3 [1, 3]: 0 n (%) | Pain in extremity TEAE incidence, All grades [1, 3]: 2 (28.6) n (%) | Pain in extremity TEAE incidence, G≥3 [1, 3]: 1 (14.3) n (%) | Peripheral edema TEAE incidence, All grades [1, 3]: 2 (28.6) n (%) | Peripheral edema TEAE incidence, G≥3 [1, 3]: 1 (14.3) n (%) | Pyrexia TEAE incidence, All grades [1, 3]: 1 (14.3) n (%) | Pyrexia TEAE incidence, G≥3 [1, 3]: 0 n (%) | Vomiting TEAE incidence, All grades [1, 3]: 1 (14.3) n (%) | Vomiting TEAE incidence, G≥3 [1, 3]: 0 n (%) | Deaths (multisystem organ failure, not considered related) ([1]; Part B, BRAF-mutated 160 mg/m^2 once-weekly group (so in the source)): One | Anemia TEAE incidence, All grades [1, 4]: 1 (33.3) n (%) | Anemia TEAE incidence, G≥3 [1, 4]: 0 n (%) | Constipation TEAE incidence, All grades [1, 4]: 0 n (%) | Constipation TEAE incidence, G≥3 [1, 4]: 0 n (%) | Cough TEAE incidence, All grades [1, 4]: 1 (33.3) n (%) | Cough TEAE incidence, G≥3 [1, 4]: 0 n (%) | Decreased appetite TEAE incidence, All grades [1, 4]: 0 n (%) | Decreased appetite TEAE incidence, G≥3 [1, 4]: 0 n (%) | Fatigue TEAE incidence, All grades [1, 4]: 0 n (%) | Fatigue TEAE incidence, G≥3 [1, 4]: 0 n (%) | Muscular weakness TEAE incidence, All grades [1, 4]: 1 (33.3) n (%) | Muscular weakness TEAE incidence, G≥3 [1, 4]: 0 n (%) | Nausea TEAE incidence, All grades [1, 4]: 1 (33.3) n (%) | Nausea TEAE incidence, G≥3 [1, 4]: 1 (33.3) n (%) | Pain in extremity TEAE incidence, All grades [1, 4]: 1 (33.3) n (%) | Pain in extremity TEAE incidence, G≥3 [1, 4]: 0 n (%) | Peripheral edema TEAE incidence, All grades [1, 4]: 1 (33.3) n (%) | Peripheral edema TEAE incidence, G≥3 [1, 4]: 0 n (%) | Pyrexia TEAE incidence, All grades [1, 4]: 0 n (%) | Pyrexia TEAE incidence, G≥3 [1, 4]: 0 n (%) | Vomiting TEAE incidence, All grades [1, 4]: 1 (33.3) n (%) | Vomiting TEAE incidence, G≥3 [1, 4]: 1 (33.3) n (%) | Anemia TEAE incidence, All grades [1, 5]: 1 (5.0) n (%) | Anemia TEAE incidence, G≥3 [1, 5]: 0 n (%) | Constipation TEAE incidence, All grades [1, 5]: 3 (15.0) n (%) | Constipation TEAE incidence, G≥3 [1, 5]: 0 n (%) | Cough TEAE incidence, All grades [1, 5]: 3 (15.0) n (%) | Cough TEAE incidence, G≥3 [1, 5]: 0 n (%) | Decreased appetite TEAE incidence, All grades [1, 5]: 3 (15.0) n (%) | Decreased appetite TEAE incidence, G≥3 [1, 5]: 0 n (%) | Fatigue TEAE incidence, All grades [1, 5]: 7 (35.0) n (%) | Fatigue TEAE incidence, G≥3 [1, 5]: 0 n (%) | Muscular weakness TEAE incidence, All grades [1, 5]: 2 (10.0) n (%) | Muscular weakness TEAE incidence, G≥3 [1, 5]: 0 n (%) | Nausea TEAE incidence, All grades [1, 5]: 7 (35.0) n (%) | Nausea TEAE incidence, G≥3 [1, 5]: 0 n (%) | Pain in extremity TEAE incidence, All grades [1, 5]: 2 (10.0) n (%) | Pain in extremity TEAE incidence, G≥3 [1, 5]: 0 n (%) | Peripheral edema TEAE incidence, All grades [1, 5]: 2 (10.0) n (%) | Peripheral edema TEAE incidence, G≥3 [1, 5]: 0 n (%) | Pyrexia TEAE incidence, All grades [1, 5]: 4 (20.0) n (%) | Pyrexia TEAE incidence, G≥3 [1, 5]: 0 n (%) | Vomiting TEAE incidence, All grades [1, 5]: 5 (25.0) n (%) | Vomiting TEAE incidence, G≥3 [1, 5]: 0 n (%) | Patients with grade 1 photophobia (possibly related) ([1]; Part B, BRAF-mutated 320 mg/m^2 once-weekly): one | Deaths (not considered related to E6201) [1, 6]: 2 patients | Patients with grade 4 pericardial effusion (unrelated) [1, 6]: 1 patient | Anemia TEAE incidence, All grades ([1]; Part B, Total (N=30)): 5 (16.7) n (%) | Anemia TEAE incidence, G≥3 ([1]; Part B, Total (N=30)): 1 (3.3) n (%) | Constipation TEAE incidence, All grades ([1]; Part B, Total (N=30)): 5 (16.7) n (%) | Constipation TEAE incidence, G≥3 ([1]; Part B, Total (N=30)): 0 n (%) | Cough TEAE incidence, All grades ([1]; Part B, Total (N=30)): 5 (16.7) n (%) | Cough TEAE incidence, G≥3 ([1]; Part B, Total (N=30)): 0 n (%) | Decreased appetite TEAE incidence, All grades ([1]; Part B, Total (N=30)): 5 (16.7) n (%) | Decreased appetite TEAE incidence, G≥3 ([1]; Part B, Total (N=30)): 0 n (%) | Fatigue TEAE incidence, All grades ([1]; Part B, Total (N=30)): 11 (36.7) n (%) | Fatigue TEAE incidence, G≥3 ([1]; Part B, Total (N=30)): 0 n (%) | Muscular weakness TEAE incidence, All grades ([1]; Part B, Total (N=30)): 5 (16.7) n (%) | Muscular weakness TEAE incidence, G≥3 ([1]; Part B, Total (N=30)): 0 n (%) | Nausea TEAE incidence, All grades ([1]; Part B, Total (N=30)): 10 (33.3) n (%) | Nausea TEAE incidence, G≥3 ([1]; Part B, Total (N=30)): 1 (3.3) n (%) | Pain in extremity TEAE incidence, All grades ([1]; Part B, Total (N=30)): 5 (16.7) n (%) | Pain in extremity TEAE incidence, G≥3 ([1]; Part B, Total (N=30)): 1 (3.3) n (%) | Peripheral edema TEAE incidence, All grades ([1]; Part B, Total (N=30)): 5 (16.7) n (%) | Peripheral edema TEAE incidence, G≥3 ([1]; Part B, Total (N=30)): 1 (3.3) n (%) | Pyrexia TEAE incidence, All grades ([1]; Part B, Total (N=30)): 5 (16.7) n (%) | Pyrexia TEAE incidence, G≥3 ([1]; Part B, Total (N=30)): 0 n (%) | Vomiting TEAE incidence, All grades ([1]; Part B, Total (N=30)): 7 (23.3) n (%) | Vomiting TEAE incidence, G≥3 ([1]; Part B, Total (N=30)): 1 (3.3) n (%) | QTcF prolongation to 450–500 ms, patients ([1]; Part B, four patients across dose groups): 13.3% | QTcF increase from baseline 30–60 ms, patients ([1]; Part B, seven patients): 23.3% | QTcF increase from baseline ≥60 ms, patients ([1]; Part B, two patients, BRAF-mutated 320 mg/m^2 once-weekly group): 6.7% | Maximum-tolerated dose (MTD), confirmed ([1]; Part B, 60-min infusion once-weekly for 3 weeks of a 28-day cycle): 320 mg/m^2 | t1/2 of E6201 [2]: 3 to 6 h
